Literature values in US20110251396A1, “Enantiomeric compositions of cicletanine, alone and in combination with other agents, for the treatment of disease” (Gilead Sciences, Inc., priority 2003, published 2011).
Where two headings read alike, the source gives them in different places.

Tests used:
[1] = system: patients whose blood pressure had not been normalized; conditions: cicletanine 50 and 100 mg per day added; all three groups
[2] = system: Dahl salt-sensitive rats; conditions: cicletanine treatment
[3] = system: hypertensives; conditions: fell from 128; 150-200 mg/day cicletanine, over 12 months
[4] = system: T-type voltage-gated plasma membrane calcium channels
[5] = system: patients with type 2 diabetes

Cc1ncc2c(c1O)COC2c1ccc(Cl)cc1 (racemic) [cicletanine]
hypoglycemic effect of tolbutamide (following 7 days of cicletanine 100 mg per day): did not change
peak insulin response to tolbutamide (single intravenous dose of tolbutamide following 7 days of cicletanine 100 mg per day): 17.4 mU/L
patients with normalized blood pressure [1]: 50%
high-density lipoprotein (HDL) cholesterol [2]: increased
low-density lipoprotein (LDL) cholesterol [2]: significantly decreased
average triglyceride levels [3]: 104 mg/dL

COCC(=O)O[C@]1(CCN(C)CCCc2nc3ccccc3[nH]2)CCc2cc(F)ccc2[C@@H]1C(C)C [mibefradil]
selectivity for blocking T-type over L-type calcium channels [4]: 10 to 50 times

CN(C)C(=N)N=C(N)N [Metformin]
patients with gastrointestinal side effects ([5]; diarrhea, nausea, abdominal pain, metallic taste): 20% to 30%
weight loss ([5]; first 6 months of treatment): 2 to 3 kg
decrease of low-density lipoprotein (LDL) cholesterol levels ([5]; monotherapy): 10% to 15%
decrease of plasma triglyceride levels ([5]; monotherapy): 10% to 15%

CCCCNC(=O)NS(=O)(=O)c1ccc(C)cc1 [tolbutamide]
peak insulin response to tolbutamide (single intravenous dose of tolbutamide alone, before cicletanine administration): 29.2 mU/L
